Results: PMC9046087, “Structural basis of tethered agonism of the adhesion GPCRs ADGRD1 and ADGRF1” (Nature, 2022)
Substitutions are numbered along the chain they refer to. Ends that are not written are not given here.

What was measured:
ADGRF1 [1] = molecular target: T1, ADGRF1 (Homo sapiens, UniProt Q5T601, L769A); assay: BRET assay using TRUPATH biosensors, Gs activation of ADGRF1; type: cell-based
T1 construct: Flag (N); expressed in transfected cells; host or cells: HEK293F
T1 sequence (Q5T601 20-910 L769A): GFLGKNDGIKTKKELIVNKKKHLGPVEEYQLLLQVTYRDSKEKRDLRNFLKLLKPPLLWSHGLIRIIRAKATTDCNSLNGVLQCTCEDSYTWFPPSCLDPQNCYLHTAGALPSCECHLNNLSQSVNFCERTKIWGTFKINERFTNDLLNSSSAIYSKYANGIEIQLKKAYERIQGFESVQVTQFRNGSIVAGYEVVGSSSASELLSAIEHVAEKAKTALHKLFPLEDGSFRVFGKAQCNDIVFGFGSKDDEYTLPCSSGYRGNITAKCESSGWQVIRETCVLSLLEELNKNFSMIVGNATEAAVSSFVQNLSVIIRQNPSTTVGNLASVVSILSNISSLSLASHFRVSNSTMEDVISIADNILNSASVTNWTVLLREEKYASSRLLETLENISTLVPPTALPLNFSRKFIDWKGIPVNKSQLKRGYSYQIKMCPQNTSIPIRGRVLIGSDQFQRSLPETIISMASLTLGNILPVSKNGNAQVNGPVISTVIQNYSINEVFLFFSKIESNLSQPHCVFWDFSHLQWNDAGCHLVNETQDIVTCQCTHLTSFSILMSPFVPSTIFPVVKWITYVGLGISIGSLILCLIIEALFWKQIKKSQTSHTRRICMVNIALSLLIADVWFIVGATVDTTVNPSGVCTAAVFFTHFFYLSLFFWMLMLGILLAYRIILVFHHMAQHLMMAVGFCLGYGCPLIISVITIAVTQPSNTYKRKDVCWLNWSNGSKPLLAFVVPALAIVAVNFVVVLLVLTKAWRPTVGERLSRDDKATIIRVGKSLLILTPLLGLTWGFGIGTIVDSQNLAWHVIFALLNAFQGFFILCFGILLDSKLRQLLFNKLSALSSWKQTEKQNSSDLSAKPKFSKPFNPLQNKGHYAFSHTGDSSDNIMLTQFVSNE
Description: (§1) To study the synthetic stalk peptide-induced G protein activation of ADGRD1 and ADGRF1, a BRET assay using TRUPATH biosensors was conducted to measure the proximal interaction between RLuc8 fused to the Gα subunit and GFP2 fused to the Gγ subunit. The TRUPATH suite of biosensors was obtained from Addgene (Addgene kit no. 1000000163) as a gift from B. Roth, including GαsS-RLuc8, Gαi1-RLuc8, Gβ3 and Gγ9-GFP2 as previously described.
(§2) The wild-type or mutant ADGRD1 and ADGRF1 were transiently co-transfected with plasmids encoding Gα-RLuc8 (GαsS-RLuc8 for Gs activation assay; Gαi1-RLuc8 for Gi activation assay), Gβ3 and Gγ9-GFP2 at a ratio of 2:1:1:1 (receptor plasmid, 800 ng; G protein subunit plasmids, 400 ng for each) in 2 ml HEK293F cells at a density of 1.2 × 10^6 cells per ml. Cell cultivation and receptor surface expression measurement were performed as described above. The cells were plated into 96-well white plates (40,000 cells per well) in 60 μl of assay buffer and incubated at 37 °C for 30 min. Then 10 μl of freshly prepared 50 μM coelenterazine 400a (Nanolight Technologies) was added. […] The cells were stimulated with 30 μl of synthetic stalk peptide at different concentrations and the BRET signals were monitored continuously five times. The last measurements were used in data analysis. The BRET ratios were calculated as the ratio of the GFP2 emission to RLuc8 emission.

ADGRF1 [2] = molecular target: T2, ADGRF1 (Homo sapiens, UniProt Q5T601, F690A); assay: as above; type: cell-based; conditions: Gs, ADGRF1 F690^ICL2A, n = 3
T2 construct: Flag (N); expressed in transfected cells; host or cells: HEK293F
T2 sequence (Q5T601 20-910 F690A): T1 sequence (Q5T601 20-910 L769A) with F671A, A750L
Description: as §1, §2

[3] = read-out: pEC50 (mean ± s.e.m.) (converted)

Emax (mean ± s.e.m.) (ADGRF1 [1]; Gs, ADGRF1 L769^5.61bA, n = 3): 73 ± 11 % of WT | EC50 (ADGRF1 [1]; [3]): 151 nM | Emax (mean ± s.e.m.) (ADGRF1 [2]): 110 ± 12 % of WT | EC50 (ADGRF1 [2]; [3]): 115 nM
Sequence: TSFSILMSPFVP [pF1]
